Test system: 12 single or co-culture in vitro tissue models of primary cells
Assay: Culture/co-culture cell model panel, extracellular biomarkers (DiscoveRx); for CCL2/MCP-1: reference of the scale not given here; for CD141/Thrombomodulin: reference of the scale not given here; for CD142/Tissue Factor: reference of the scale not given here; for CD38: reference of the scale not given here; for CD40: reference of the scale not given here; for CD69: reference of the scale not given here; for CXCL8/IL-8: reference of the scale not given here; for CXCL9/MIG: reference of the scale not given here; for IL-1alpha: reference of the scale not given here; for M-CSF: reference of the scale not given here; for PBMC Cytotoxicity: reference of the scale not given here; for Proliferation: reference of the scale not given here; for SRB: reference of the scale not given here; for sPGE2: reference of the scale not given here; for sTNF-alpha: reference of the scale not given here
Assay type: cell-based, human

For `Cc1n[nH]c2ncc(C(=O)N3CCC[C@H]3c3ccc(Cl)cc3)cc12` [CMPD4], the IL-1alpha (LPS Huvec+PBMC, 1.11E3 nM) was 0.016, the M-CSF (LPS Huvec+PBMC, 1.11E3 nM) was 0.016 and the SRB (LPS Huvec+PBMC, 1.11E3 nM) was -0.126. It also gave a sPGE2 (LPS Huvec+PBMC, 1.11E3 nM) of 0.239, a sTNF-alpha (LPS Huvec+PBMC, 1.11E3 nM) of 0.133 and a CCL2/MCP-1 (LPS Huvec+PBMC, 1.23E2 nM) of -0.026. For the same compound, the CD40 (LPS Huvec+PBMC, 1.23E2 nM) was -0.152, the CD62E/E-Selectin (LPS Huvec+PBMC, 1.23E2 nM) was 0.006 and the CD69 (LPS Huvec+PBMC, 1.23E2 nM) was 0.00187. For the same compound, the CD106/VCAM-1 (LPS Huvec+PBMC, 1.23E2 nM) was 0.093, the CD141/Thrombomodulin (LPS Huvec+PBMC, 1.23E2 nM) was 0.087 and the “CD142/Tissue Factor” value (LPS Huvec+PBMC, 1.23E2 nM) was 0.139. It also gave a CXCL8/IL-8 (LPS Huvec+PBMC, 1.23E2 nM) of -0.075, an IL-1alpha (LPS Huvec+PBMC, 1.23E2 nM) of 0.044 and a M-CSF (LPS Huvec+PBMC, 1.23E2 nM) of -0.000401. It also gave an SRB (LPS Huvec+PBMC, 1.23E2 nM) of -0.089, a sPGE2 (LPS Huvec+PBMC, 1.23E2 nM) of 0.245 and a sTNF-alpha (LPS Huvec+PBMC, 1.23E2 nM) of 0.048. It also gave a CCL2/MCP-1 (LPS Huvec+PBMC, 1.37E1 nM) of 0.005, a CD40 (LPS Huvec+PBMC, 1.37E1 nM) of -0.187 and a CD62E/E-Selectin (LPS Huvec+PBMC, 1.37E1 nM) of -0.020. The CD69 (LPS Huvec+PBMC, 1.37E1 nM) was -0.009, the CD106/VCAM-1 (LPS Huvec+PBMC, 1.37E1 nM) was 0.066 and the CD141/Thrombomodulin (LPS Huvec+PBMC, 1.37E1 nM) was 0.056. The “CD142/Tissue Factor” value (LPS Huvec+PBMC, 1.37E1 nM) was 0.073, the CXCL8/IL-8 (LPS Huvec+PBMC, 1.37E1 nM) was -0.037 and the IL-1alpha (LPS Huvec+PBMC, 1.37E1 nM) was -0.072. For the same compound, the M-CSF (LPS Huvec+PBMC, 1.37E1 nM) was 0.00323, the SRB (LPS Huvec+PBMC, 1.37E1 nM) was -0.040 and the sPGE2 (LPS Huvec+PBMC, 1.37E1 nM) was 0.171. The sTNF-alpha (LPS Huvec+PBMC, 1.37E1 nM) was 0.038, the CCL2/MCP-1 (LPS Huvec+PBMC, 3.33E3 nM) was -0.067 and the CD40 (LPS Huvec+PBMC, 3.33E3 nM) was -0.112. It also gave a CD62E/E-Selectin (LPS Huvec+PBMC, 3.33E3 nM) of 0.00461, a CD69 (LPS Huvec+PBMC, 3.33E3 nM) of 0.059 and a CD106/VCAM-1 (LPS Huvec+PBMC, 3.33E3 nM) of 0.096. The CD141/Thrombomodulin (LPS Huvec+PBMC, 3.33E3 nM) was 0.075, the “CD142/Tissue Factor” value (LPS Huvec+PBMC, 3.33E3 nM) was 0.108 and the CXCL8/IL-8 (LPS Huvec+PBMC, 3.33E3 nM) was -0.193. The IL-1alpha (LPS Huvec+PBMC, 3.33E3 nM) was 0.066, the M-CSF (LPS Huvec+PBMC, 3.33E3 nM) was 0.023 and the SRB (LPS Huvec+PBMC, 3.33E3 nM) was -0.130. For the same compound, the sPGE2 (LPS Huvec+PBMC, 3.33E3 nM) was 0.179, the sTNF-alpha (LPS Huvec+PBMC, 3.33E3 nM) was 0.057 and the CCL2/MCP-1 (LPS Huvec+PBMC, 3.70E2 nM) was -0.029. The CD40 (LPS Huvec+PBMC, 3.70E2 nM) was -0.162, the CD62E/E-Selectin (LPS Huvec+PBMC, 3.70E2 nM) was -0.010 and the CD69 (LPS Huvec+PBMC, 3.70E2 nM) was 0.00559. The CD106/VCAM-1 (LPS Huvec+PBMC, 3.70E2 nM) was 0.093, the CD141/Thrombomodulin (LPS Huvec+PBMC, 3.70E2 nM) was 0.092 and the “CD142/Tissue Factor” value (LPS Huvec+PBMC, 3.70E2 nM) was 0.144. For the same compound, the CXCL8/IL-8 (LPS Huvec+PBMC, 3.70E2 nM) was -0.137, the IL-1alpha (LPS Huvec+PBMC, 3.70E2 nM) was 0.044 and the M-CSF (LPS Huvec+PBMC, 3.70E2 nM) was -0.012. It also gave an SRB (LPS Huvec+PBMC, 3.70E2 nM) of -0.096, a sPGE2 (LPS Huvec+PBMC, 3.70E2 nM) of 0.189 and a sTNF-alpha (LPS Huvec+PBMC, 3.70E2 nM) of 0.099. For the same compound, the CCL2/MCP-1 (LPS Huvec+PBMC, 4.12E1 nM) was -0.00282, the CD40 (LPS Huvec+PBMC, 4.12E1 nM) was -0.180 and the CD62E/E-Selectin (LPS Huvec+PBMC, 4.12E1 nM) was -0.032. It also gave a CD69 (LPS Huvec+PBMC, 4.12E1 nM) of 0.017, a CD106/VCAM-1 (LPS Huvec+PBMC, 4.12E1 nM) of 0.090 and a CD141/Thrombomodulin (LPS Huvec+PBMC, 4.12E1 nM) of 0.090. The “CD142/Tissue Factor” value (LPS Huvec+PBMC, 4.12E1 nM) was 0.115, the CXCL8/IL-8 (LPS Huvec+PBMC, 4.12E1 nM) was -0.044 and the IL-1alpha (LPS Huvec+PBMC, 4.12E1 nM) was 0.017. The M-CSF (LPS Huvec+PBMC, 4.12E1 nM) was -0.0023, the SRB (LPS Huvec+PBMC, 4.12E1 nM) was -0.053 and the sPGE2 (LPS Huvec+PBMC, 4.12E1 nM) was 0.230. For the same compound, the sTNF-alpha (LPS Huvec+PBMC, 4.12E1 nM) was 0.081, the CCL2/MCP-1 (LPS Huvec+PBMC, 4.57E0 nM) was -0.00276 and the CD40 (LPS Huvec+PBMC, 4.57E0 nM) was -0.174. The CD62E/E-Selectin (LPS Huvec+PBMC, 4.57E0 nM) was -0.017, the CD69 (LPS Huvec+PBMC, 4.57E0 nM) was 0.019 and the CD106/VCAM-1 (LPS Huvec+PBMC, 4.57E0 nM) was 0.051. The CD141/Thrombomodulin (LPS Huvec+PBMC, 4.57E0 nM) was 0.058, the “CD142/Tissue Factor” value (LPS Huvec+PBMC, 4.57E0 nM) was 0.062 and the CXCL8/IL-8 (LPS Huvec+PBMC, 4.57E0 nM) was -0.024. For the same compound, the IL-1alpha (LPS Huvec+PBMC, 4.57E0 nM) was -0.00758, the M-CSF (LPS Huvec+PBMC, 4.57E0 nM) was -0.005 and the SRB (LPS Huvec+PBMC, 4.57E0 nM) was -0.016. The sPGE2 (LPS Huvec+PBMC, 4.57E0 nM) was 0.124, the sTNF-alpha (LPS Huvec+PBMC, 4.57E0 nM) was -0.057 and the CCL2/MCP-1 (SAg, 1.00E4 nM) was -0.077. The CD38 (SAg, 1.00E4 nM) was -0.031, the CD40 (SAg, 1.00E4 nM) was -0.104 and the CD62E/E-Selectin (SAg, 1.00E4 nM) was 0.099. For the same compound, the CD69 (SAg, 1.00E4 nM) was 0.140, the CXCL8/IL-8 (SAg, 1.00E4 nM) was -0.277 and the CXCL9/MIG (SAg, 1.00E4 nM) was -0.047. For the same compound, the “PBMC Cytotoxicity” value (SAg, 1.00E4 nM) was 0.013, the Proliferation (SAg, 1.00E4 nM) was -0.003 and the SRB (SAg, 1.00E4 nM) was -0.133. For the same compound, the CCL2/MCP-1 (SAg, 1.11E3 nM) was -0.125, the CD38 (SAg, 1.11E3 nM) was -0.063 and the CD40 (SAg, 1.11E3 nM) was -0.103. For the same compound, the CD62E/E-Selectin (SAg, 1.11E3 nM) was 0.135, the CD69 (SAg, 1.11E3 nM) was 0.166 and the CXCL8/IL-8 (SAg, 1.11E3 nM) was -0.272. The CXCL9/MIG (SAg, 1.11E3 nM) was -0.097, the “PBMC Cytotoxicity” value (SAg, 1.11E3 nM) was 0.007 and the Proliferation (SAg, 1.11E3 nM) was -0.000932. The SRB (SAg, 1.11E3 nM) was -0.168, the CCL2/MCP-1 (SAg, 1.23E2 nM) was -0.092 and the CD38 (SAg, 1.23E2 nM) was -0.087. It also gave a CD40 (SAg, 1.23E2 nM) of -0.136, a CD62E/E-Selectin (SAg, 1.23E2 nM) of 0.130 and a CD69 (SAg, 1.23E2 nM) of 0.140. The CXCL8/IL-8 (SAg, 1.23E2 nM) was -0.108, the CXCL9/MIG (SAg, 1.23E2 nM) was -0.076 and the “PBMC Cytotoxicity” value (SAg, 1.23E2 nM) was -0.032. For the same compound, the Proliferation (SAg, 1.23E2 nM) was 0.030, the SRB (SAg, 1.23E2 nM) was -0.149 and the CCL2/MCP-1 (SAg, 1.37E1 nM) was -0.019. The CD38 (SAg, 1.37E1 nM) was -0.064, the CD40 (SAg, 1.37E1 nM) was -0.117 and the CD62E/E-Selectin (SAg, 1.37E1 nM) was 0.101. It also gave a CD69 (SAg, 1.37E1 nM) of 0.100, a CXCL8/IL-8 (SAg, 1.37E1 nM) of -0.060 and a CXCL9/MIG (SAg, 1.37E1 nM) of -0.029. The “PBMC Cytotoxicity” value (SAg, 1.37E1 nM) was 0.005, the Proliferation (SAg, 1.37E1 nM) was -0.021 and the SRB (SAg, 1.37E1 nM) was -0.058. It also gave a CCL2/MCP-1 (SAg, 3.33E3 nM) of -0.104, a CD38 (SAg, 3.33E3 nM) of -0.056 and a CD40 (SAg, 3.33E3 nM) of -0.138. The CD62E/E-Selectin (SAg, 3.33E3 nM) was 0.125, the CD69 (SAg, 3.33E3 nM) was 0.148 and the CXCL8/IL-8 (SAg, 3.33E3 nM) was -0.259. The CXCL9/MIG (SAg, 3.33E3 nM) was -0.085, the “PBMC Cytotoxicity” value (SAg, 3.33E3 nM) was -0.00278 and the Proliferation (SAg, 3.33E3 nM) was -0.016. The SRB (SAg, 3.33E3 nM) was -0.179, the CCL2/MCP-1 (SAg, 3.70E2 nM) was -0.123 and the CD38 (SAg, 3.70E2 nM) was -0.080. It also gave a CD40 (SAg, 3.70E2 nM) of -0.137, a CD62E/E-Selectin (SAg, 3.70E2 nM) of 0.119 and a CD69 (SAg, 3.70E2 nM) of 0.128. The CXCL8/IL-8 (SAg, 3.70E2 nM) was -0.284, the CXCL9/MIG (SAg, 3.70E2 nM) was -0.085 and the “PBMC Cytotoxicity” value (SAg, 3.70E2 nM) was -0.040. It also gave a Proliferation (SAg, 3.70E2 nM) of -0.011, an SRB (SAg, 3.70E2 nM) of -0.146 and a CCL2/MCP-1 (SAg, 4.12E1 nM) of -0.056. It also gave a CD38 (SAg, 4.12E1 nM) of -0.062, a CD40 (SAg, 4.12E1 nM) of -0.124 and a CD62E/E-Selectin (SAg, 4.12E1 nM) of 0.124. For the same compound, the CD69 (SAg, 4.12E1 nM) was 0.126, the CXCL8/IL-8 (SAg, 4.12E1 nM) was -0.119 and the CXCL9/MIG (SAg, 4.12E1 nM) was -0.046. For the same compound, the “PBMC Cytotoxicity” value (SAg, 4.12E1 nM) was -0.001, the Proliferation (SAg, 4.12E1 nM) was 0.000938 and the SRB (SAg, 4.12E1 nM) was -0.102. The CCL2/MCP-1 (SAg, 4.57E0 nM) was 0.040, the CD38 (SAg, 4.57E0 nM) was -0.052 and the CD40 (SAg, 4.57E0 nM) was -0.084. The CD62E/E-Selectin (SAg, 4.57E0 nM) was 0.070, the CD69 (SAg, 4.57E0 nM) was 0.062 and the CXCL8/IL-8 (SAg, 4.57E0 nM) was 0.007. For the same compound, the CXCL9/MIG (SAg, 4.57E0 nM) was -0.031, the “PBMC Cytotoxicity” value (SAg, 4.57E0 nM) was 0.015 and the Proliferation (SAg, 4.57E0 nM) was 0.009. For the same compound, the SRB (SAg, 4.57E0 nM) was 0.029.

Source: publication PMC5224920, “Assessing the mechanism and therapeutic potential of modulators of the human Mediator complex-associated protein kinases” (eLife, 2016)
